Measurements reported in patent US20260000656A1, “ANTIFUNGAL AGENTS WITH ENHANCED ACTIVITY IN ACIDIC PH” (Scynexis, Inc., priority 2017, published 2026).
Read-outs that look alike come from different tables or passages of the source.

Legend:
Format in all cases: in vivo, human
[1] = test system: vulvovaginal candidiasis (Candida spp.); conditions: for rate of mycological eradication: SCY-078 combined arms / fluconazole arm; for Therapeutic cure (clinical cure and mycological eradication) / mycological eradication / clinical cure: ITT population; for Therapeutic cure (clinical cure and mycological eradication): Day 24 Test-of-Cure visit; for Therapeutic cure (clinical cure and mycological eradication) / mycological eradication: combined SCY-078 arms (n = 64) / fluconazole 150 mg (n = 32); for mycological eradication / clinical cure: Test-of-Cure visit (Day 24); for clinical cure: combined SCY-078 arms (n = 64, 1250 mg then 750 mg QD for 2 or 4 days) / fluconazole 150 mg single dose (n = 32)
Method: As a first step of the feasibility evaluation, a proof-of-concept exploratory trial in 96 patients with moderate to severe acute VVC was conducted. Subjects received SCY-078 tablets orally, administered at a dose of 1250 mg on day 1, followed by 750 mg once a day for 2 or 4 days. A comparator group of patients receiving oral fluconazole at the approved dose (150 mg, single dose) was also included.
This study was a proof-of-concept study conducted to evaluate the safety and efficacy of two dosing regimens of oral SCY-078 (administered as the phosphate salt) in subjects presenting with moderate to severe VVC.
Key criteria for inclusion included: • 1. Subjects with moderate to severe VVC, confirmed by positive potassium hydroxide (KOH) test from a vaginal secretion sample • 2. Three vaginitis episodes in the past year that were either confirmed to be caused by Candida spp. or that responded to antifungal therapy
Subjects were randomized in a 1:1:1 ratio to one of the three treatment arms: Oral SCY-078 loading dose of 1250 mg SCY-078, followed by 750 mg SCY-078 QD for 2 days or for 4 days, or Oral Fluconazole 150 mg for 1 day.
Subjects were evaluated on Day 24 (Test-of-Cure visit), Day 60, Day 90, and 120 days (end of study).
The analyses included clinical cure (all signs and symptoms present at baseline improved by at least two points (e.g., from moderate to absent or from severe to mild); after the study started, the FDA proposed that clinical cure is achieved if all signs and symptoms present at baseline are absent), mycological eradication (a negative culture for the baseline yeast pathogen), and therapeutic cure (both clinical cure and mycological eradication). Clinical cure has been proposed by the FDA as the primary endpoint for assessment of efficacy in VVC.
Ninety-six subjects were enrolled (intent-to-treat (ITT) population), and 70 subjects had cultured-confirmed Candida spp. infection (per protocol (PP) population).

[2] = test system: acute VVC (Candida spp. vaginal infection); assay: clinical; conditions: for mycological eradication / percentage of patients showing an S&S score of 0 or 1 / mean S&S score / percentage of patients with 0-or-1 S&S score / percentage of patients with clinical cure: SCY-078 600 mg dose arm / fluconazole arm; for mean S&S score: scale 0 to 18; for clinical cure / clinical cure, number of patients: Day 10 Test-of-Cure, mITT, SCY-078 600 mg (300 mg BID 1 day, n=27) / fluconazole 150 mg (n=24); for percentage of patients with 0-or-1 S&S score / percentage of patients with clinical cure: Day 25 Follow-Up visit; for patients who received rescue antifungal medication: through Day 25 Follow-Up, SCY-078 600 mg (n=27) / fluconazole (n=24)
Method: (§1) A Phase 2 study was conducted to evaluate the safety, efficacy, tolerability, and pharmacokinetics of five dose regimens of oral SCY-078 (administered as the citrate salt) compared to oral fluconazole in adult, female patients with moderate-to-severe acute VVC (defined as having a signs and symptoms (S&S) score of 7 or greater). A total of 186 intent-to-treat (ITT) patients were randomized into six different treatment arms as follows: five different dosing regimens of oral SCY-078 and one oral fluconazole treatment arm. The modified intent-to-treat (mITT) population was used for efficacy analysis and included 153 patients with culture-confirmed Candida spp. vaginal infection (positive microscopic examination of vaginal secretions showing yeast, vaginal pH≤4.5) at baseline. The doses of SCY-078 tested ranged from 600 mg to 1800 mg total dose administered over the duration of treatment, and the durations of treatment were 1 or 3 days:
(§2) The primary efficacy endpoint was clinical cure, which according to current FDA guidance is defined as complete resolution (score=0) of all signs and symptoms at the Day 10 Test-of-Cure visit without the need of additional antifungal therapy. Secondary endpoints included mycological eradication (negative culture) and a composite endpoint including both clinical cure and mycological eradication. Response was also evaluated based on the percent of patients achieving a noticeable improvement in their signs and symptoms, either by achieving an S&S score of 0 or 1 or an absolute change (reduction) in mean composite S&S score from baseline. An S&S score is based on a patient's reported symptoms (burning, itching, and irritation) and investigator-assessed signs (swelling, redness, and excoriations); each sign and symptom can be absent, mild, moderate, or severe, with a corresponding score from 0 to 3; the total composite scale is 0 to 18 points. Response was further evaluated by assessing the number of patients who received rescue antifungal therapy. Patients were assessed at the Day 10 Test-of-Cure visit and also at a Day 25 Follow-Up visit. The study was not designed to achieve statistically significant differences in any of the evaluated endpoints.

clinical = conditions: female, human, in vivo, po, 300 mg
Method: as §1, §2

[3] = Day 24, per protocol population, SCY-078 Combined (n = 50) / Fluconazole (n = 20)
[4] = Month 4, SCY-078 Combined (n = 50) / Fluconazole (n = 20)
[5] = Day 24, per protocol population
[6] = Day 24, per protocol population, SCY-078 3-Days arm (n = 24)
[7] = Day 24, per protocol population, SCY-078 5-Days arm (n = 26)
[8] = Month 4, SCY-078 3-Days arm (n = 24)
[9] = Month 4, SCY-078 5-Days arm (n = 26)

Compound | Clinical Cure (Updated FDA Definition), rate [1, 3] | Clinical Cure, rate [1, 3] | rate of mycological eradication ([1]; Day 24) | Therapeutic cure (clinical cure and mycological eradication) [1] | mycological eradication [1] | clinical cure [1] | Clinical Cure, rate [1, 4] | Recurrences Requiring Antifungal Therapy, rate [1, 4] | “0” Signs and Symptoms, rate [1, 4] | rate of mycological eradication ([1]; Month 4) | mycological eradication ([2]; Day 10, mITT) | percentage of patients showing an S&S score of 0 or 1 ([2]; Day 10, mITT) | mean S&S score ([2]; Day 10, mITT) | clinical cure [2] | clinical cure, number of patients [2] | mycological eradication ([2]; Day 25) | mean S&S score ([2]; Day 25) | percentage of patients with 0-or-1 S&S score [2] | percentage of patients with clinical cure [2] | patients who received rescue antifungal medication [2] | also measured
OC(Cn1cncn1)(Cn1cncn1)c1ccc(F)cc1F [Fluconazole, reference compound] | 55% | 65% | 65% | 56.3% | 68.8% | 65.6% | 65% | 15% | 65% | 60% | 63% | 71% | 1.8 | 58% | 14 | 38% | 2.6 | 58% | 50% | 29% | Therapeutic cure (clinical cure and mycological eradication) ([1]; listed as fluconazole): 56.3%
CC(C)[C@@H](C)[C@@]1(C)CC[C@]2(C)[C@H]3CC[C@@H]4[C@@]5(COC[C@]4(C)[C@@H](OC[C@](C)(N)C(C)(C)C)[C@H](n4ncnc4-c4ccncc4)C5)C3=CC[C@@]2(C)[C@@H]1C(=O)O [SCY-078] | 70% | 76% | 70% | 56.3% | 70.3% | 78.1% | 88% | 4% | 80% | 74% | 63% | 70% | 1.0 | 52% | 14 | 48% | 0.4 | 81% | 70% | 4% | % Δ SCY-078 (combined) vs. Fluconazole, Clinical Cure [1, 5]: 11%; % Δ SCY-078 (combined) vs. Fluconazole, Clinical Cure (Updated FDA Definition) [1, 5]: 15%; Clinical Cure (Updated FDA Definition), rate [1, 6]: 70.8%; Clinical Cure, rate [1, 6]: 79.2%; Clinical Cure (Updated FDA Definition), rate [1, 7]: 69.2%; Clinical Cure, rate [1, 7]: 73.1%; % Δ SCY-078 (combined) vs. Fluconazole, Clinical Cure ([1]; Month 4): 23%; % Δ SCY-078 (combined) vs. Fluconazole, Recurrences Requiring Antifungal Therapy ([1]; Month 4): −11%; % Δ SCY-078 (combined) vs. Fluconazole, “0” Signs and Symptoms ([1]; Month 4): 15%; Clinical Cure, rate [1, 8]: 87.5%; Recurrences Requiring Antifungal Therapy, rate [1, 8]: 4.2%; “0” Signs and Symptoms, rate [1, 8]: 79.1%; Clinical Cure, rate [1, 9]: 88.46%; Recurrences Requiring Antifungal Therapy, rate [1, 9]: 3.8%; “0” Signs and Symptoms, rate [1, 9]: 80.7%; GI adverse events (e.g., nausea, diarrhea) ([1]; in vivo): higher rate of GI adverse events; AUC(0-t) (clinical): 3 to 8 µM·h; Cmax (clinical): 200 to 500 nM
